Laboratory results reported in PubChem BioAssay (NCI).
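Protocol summary: plate cells (96-well), add compound at 5 concentrations, incubate 48 h, interpolate endpoints linearly. GI50: concentration for 50% inhibition of growth. TGI: concentration producing complete growth inhibition.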

Key:
Experiment in all cases: NCI tumour cell line growth inhibition, 48 h
U251 CNS = tested on: U251 CNS
SK-OV-3 ovarian = tested on: SK-OV-3 ovarian
SF-268 CNS = tested on: SF-268 CNS
UACC-62 melanoma = tested on: UACC-62 melanoma
KM12 colon = tested on: KM12 colon
UACC-257 melanoma = tested on: UACC-257 melanoma
EKVX NSCLC = tested on: EKVX NSCLC
IGROV1 ovarian = tested on: IGROV1 ovarian
NCI-H226 lung = tested on: NCI-H226 lung
MALME-3M melanoma = tested on: MALME-3M melanoma

| SMILES | TGI (U251 CNS) | TGI (SK-OV-3 ovarian) | TGI (SF-268 CNS) | TGI (UACC-62 melanoma) | TGI (KM12 colon) | TGI (UACC-257 melanoma) | TGI (EKVX NSCLC) | TGI (IGROV1 ovarian) | TGI (NCI-H226 lung) | TGI (MALME-3M melanoma) | GI50 (IGROV1 ovarian) | GI50 (U251 CNS) | GI50 (NCI-H226 lung) | GI50 (SK-OV-3 ovarian) | GI50 (SF-268 CNS) | GI50 (UACC-62 melanoma) | GI50 (KM12 colon) | GI50 (UACC-257 melanoma) | GI50 (MALME-3M melanoma) | GI50 (EKVX NSCLC) |
| --- | --- | --- | --- | --- | --- | --- | --- | --- | --- | --- | --- | --- | --- | --- | --- | --- | --- | --- | --- | --- |
| c1cnn(CN(Cn2cccn2)Cn2cccn2)c1 | > 100 µM | > 100 µM | > 100 µM | > 100 µM | > 100 µM | > 100 µM | > 100 µM |  |  |  |  |  |  |  |  |  |  |  |  |  |
| O=C(CCc1nc(=S)[nH][nH]1)Nc1ccccc1Cl | > 100 µM | > 100 µM | > 100 µM | > 100 µM | > 100 µM | > 100 µM | > 100 µM | > 100 µM | > 100 µM | > 100 µM |  |  |  |  |  |  |  |  |  |  |
| COC(=O)C(Cc1nc2ccccc2[nH]c1=O)C(NO)C(=O)Nc1c(Cl)cc([N+](=O)[O-])cc1Cl (configuration not stated) | 99 µM | > 100 µM | > 100 µM | 34.5 µM | > 100 µM | > 100 µM | > 100 µM | > 100 µM |  | > 100 µM |  |  |  |  |  |  |  |  |  |  |
| Cc1cc(C)c(NC(=O)c2sc3nc4c(cc3c2N)C(=O)CCC4)c(C)c1 | > 100 µM | > 100 µM | > 100 µM | > 100 µM | > 100 µM | > 95.9 µM | > 100 µM | > 100 µM | > 100 µM | > 100 µM | 5.58 µM | 3.49 µM | 5.81 µM | 2.07 µM | 6.69 µM | 1.31 µM | 2.8 µM | 10 µM | 1.83 µM | 4.28 µM |
| COc1ccc(C[N+](C)(C)N)cc1OC | > 100 µM | > 100 µM | > 100 µM | > 100 µM | > 100 µM | > 100 µM | > 100 µM | > 100 µM | > 100 µM | > 100 µM |  | > 100 µM |  | > 100 µM | > 100 µM |  | > 100 µM | > 100 µM | > 100 µM |  |
| CC(=O)O[C@H]1CCC2[C@@H]3CC[C@]4(C)CC(=O)C=C[C@]4(C)C3CC[C@@]21C (some centres not stated) | 33.1 µM | > 100 µM | 43.8 µM | 30.4 µM | 44.3 µM | 43.9 µM | > 90.5 µM | 58.3 µM | > 77.7 µM | 34.3 µM |  |  |  |  |  |  |  |  |  |  |
| O=C(O)CNS(=O)(=O)c1ccc(NC(=O)c2ccc([N+](=O)[O-])cc2)cc1 | > 100 µM | > 100 µM | > 100 µM | > 100 µM | > 100 µM | > 100 µM | > 100 µM | > 100 µM | > 100 µM | > 100 µM |  |  |  |  |  |  |  |  |  |  |
| CC/C=C\C[C@H](O)C/C=C1/C(=O)C=C[C@@H]1C/C=C\CCCC(=O)OC | 4.07 µM | 15.4 µM | 11.8 µM | 3.49 µM | 5.02 µM | 7.09 µM | 12.4 µM | 8.71 µM | 4.63 µM | 6.24 µM | 3.05 µM | 1.63 µM | 2.17 µM | 5.37 µM | 2.56 µM | 1.05 µM | 1.38 µM | 2.36 µM | 2.14 µM | 3.11 µM |
| COc1ccc(/C=C/c2c(C(=O)/C=C/c3ccccc3)c(C)nc3ccccc23)cc1 | 2.96 µM | 9.54 µM | 5.65 µM | 3.11 µM | 3.52 µM | 3.21 µM | 3.56 µM | 5.36 µM | 4.02 µM | 3.2 µM | 1.57 µM | 1.61 µM | 1.81 µM | 3.13 µM | 2.18 µM | 1.61 µM | 1.77 µM | 1.7 µM | 1.74 µM | 1.77 µM |
| CCCN(CCC)C(=O)c1c([N+](=O)[O-])cc(C(F)(F)F)cc1[N+](=O)[O-] | > 100 µM | > 100 µM | > 100 µM | 50.1 µM | > 100 µM |  | > 100 µM | > 100 µM | 65.3 µM |  |  |  |  |  |  |  |  |  |  |  |
| CCCC(CCC)NCC(O)c1cc(-c2ccc(C(F)(F)F)cc2)nc(C(F)(F)F)c1 (configuration not stated) | 3.22 µM | 3.22 µM | 3.38 µM | 3.25 µM | 3.42 µM | 3.45 µM | 3.81 µM | 4.09 µM | 3.08 µM | 4.02 µM | 2.09 µM | 1.74 µM | 1.59 µM | 1.75 µM | 1.86 µM | 1.72 µM | 1.93 µM | 1.8 µM | 2.05 µM | 2.01 µM |
| S=c1ssc(N2CCOCC2)c1Cl | 28.3 µM | > 100 µM | 71 µM | > 100 µM | > 100 µM | > 100 µM | > 100 µM |  | > 100 µM |  |  | 15 µM | > 100 µM | 28.1 µM | 23.3 µM | 26.5 µM | 31 µM | > 100 µM |  | 58 µM |
| COCC[C@H]1CCC/C=C/[C@@H]2C[C@H](O)C[C@H]2[C@H](O)/C=C/C(=O)O1 | > 100 µM | > 100 µM | > 100 µM | > 100 µM | 0.118 µM |  | > 100 µM | > 29 µM | 0.121 µM | 0.228 µM | 0.331 µM | 0.166 µM | 0.0293 µM | 0.0725 µM | 0.0488 µM | 0.0425 µM | 0.034 µM | 0.035 µM | 0.0344 µM | 0.114 µM |
| Cc1cc2nc(C=C(C(F)(F)F)C(F)(F)F)oc2cc1C | > 10 µM | > 10 µM | 9 µM | > 10 µM | > 10 µM | > 10 µM | 8.05 µM | 8.08 µM |  | 3.76 µM |  |  |  |  |  |  |  |  |  |  |
| O=S(=O)(c1ccc(NC(=S)NC23CC4CC(CC(C4)C2)C3)cc1)N1CCCCC1 | 13.3 µM | 9.26 µM | > 100 µM | > 100 µM | 42.2 µM | 6.8 µM |  | > 100 µM | > 100 µM | 8.3 µM | 4.63 µM | 2.92 µM | 4.05 µM | 2.98 µM | 4.12 µM | 3.22 µM | 3.65 µM | 2.49 µM | 2.76 µM |  |
